Where two headings read alike, the source gives them in different places. Where no end group is shown, it is not given here. [ ]: non-standard residue; d: D form. The star is where a group is joined. Lys(Me2) = CN(C)CCCC[C@H](N)C(=O)O; Myristyl = CCCCCCCCCCCCCC*
Key:
LSD1 [1] = biological target: T1, LSD1 (Homo sapiens, UniProt O60341)
perforin and CD3 = type: in vivo, golden Syrian Hamsters; conditions: hamster, IP or IV routes
ACE2, LSD1 = type: cell-based; conditions: Caco-2 cells
SARS-CoV-2 [2] = test system: SARS-CoV-2; set-up: species or system golden Syrian Hamsters; conditions: hamster, in vivo
[3] = test system: ACE2, SARS-CoV-2 nucleocapsid and Spike proteins; type: cell-based
ACE2-importin complex = type: binding
[4] = test system: SARS-Cov-2 induced lung pathology; set-up: species or system golden Syrian Hamsters; conditions: hamster, in vivo
SARS-CoV-2 [5] = test system: SARS-CoV-2; set-up: species or system golden Syrian Hamsters; conditions: hamster, in vivo; remark: listed apart in the source
[6] = Hamster tolerance (animal safety) study; type: in vivo, golden Syrian Hamsters; conditions: escalating IP doses
Description: Female golden Syrian Hamsters (6-8 weeks) were obtained from Janiver Labs (Le Genest-Saint-Isle, France) and studies conducted by Oncodesign® Biotechnology (Dijon Cedex, France). For tolerance experiments, animals (3 per group) received escalating doses of P604 ACE2 peptide inhibitor or ACE2i peptide via intraperitoneal injection. Doses were escalated daily (day 1: 25 mg/kg, day 2: 50 mg/kg, day 3: 100 mg/kg) and animals monitored prior to culling on day 4. Animal viability, behaviour and rectal temperature were recorded every 2 hours over a 6 hour period post-administration and body weights were measured daily. For P604 ACE2 peptide inhibitor efficacy studies, animals (8 per group) were treated with vehicle (IP, daily day 0, 1 and 2) (Sodium chloride 0.9%, Osalia, Paris, France) or P604 ACE2 peptide inhibitor over a 2-day period via intravenous (IV, 15 mg/kg, day 0 once and day 1 twice, 8 hours apart) or intraperitoneal (IP, 100 mg/kg, daily Day 0, 1, 2) injection. For P604 ACE2 peptide inhibitor efficacy studies, animals were treated with vehicle or P604 ACE2 peptide inhibitor (30 mg/kg, IN, twice daily, Day 0, 1 8 hours apart).

ACE2unmod and IMPα1 = biological target: T2, ACE2unmod and IMPα1 (Homo sapiens, UniProt P52292); type: cell-based; set-up: dose or concentration left out as unconfirmed; conditions: H1299 cells
T2 construct: endogenous in cells; host or cells: H1299

SARS-CoV-2 Spike protein [7] = test system: SARS-CoV-2 Spike protein; set-up: species or system golden Syrian Hamsters; conditions: hamster, in vivo
LSD1 [8] = biological target: T1, LSD1; experiment: In vitro LSD1 activity assay (demethylation of ACE2 peptide at lysine 31); type: biochemical
SARS-CoV-2 [9] = type: cell-based
SARS-CoV-2 spike protein [10] = biological target: T3, SARS-CoV-2 spike protein (Severe acute respiratory syndrome coronavirus 2, UniProt P0DTC2); type: cell-based
T3 construct: spike protein 51 (Glu14-Ser680) containing a poly-histidine tag at the C-terminus; poly-histidine (C)

[11] = biological target: ACE2 and SARS-CoV-2 Spike (Severe acute respiratory syndrome coronavirus 2, UniProt P0DTC2); type: cell-based
SARS-CoV-2 [12] = type: cell-based; remark: listed apart in the source

NNCCc1ccccc1 [phenelzine]
effect on ACE2 transcription (LSD1 [1]): minimal effect
expression and co-localization of LSD1 with ACE2 and TMRPSS2 (LSD1 [1]): abrogated

Myristyl-TGIRDRKKKNKARS-OH (SMILES CCCCCCCCCCCCCCN[C@H](C(=O)NCC(=O)N[C@H](C(=O)N[C@@H](CCCNC(=N)N)C(=O)N[C@@H](CC(=O)O)C(=O)N[C@@H](CCCNC(=N)N)C(=O)N[C@@H](CCCCN)C(=O)N[C@@H](CCCCN)C(=O)N[C@@H](CCCCN)C(=O)N[C@@H](CC(N)=O)C(=O)N[C@@H](CCCCN)C(=O)N[C@@H](C)C(=O)N[C@@H](CCCNC(=N)N)C(=O)N[C@@H](CO)C(=O)O)[C@@H](C)CC)[C@@H](C)O) [P604]
CD3+ cells expressing perforin in lung (perforin and CD3): induce more CD3+ cells to express perforin
cells positive for perforin in lung (perforin and CD3): significantly induce higher cells positive for perforin
PCC(r) of LSD1 and ACE2 (co-localisation) (ACE2, LSD1): significantly abrogated
ACE2 expression on the cell surface (ACE2, LSD1; 25 mM/50 mM): de-stabilizes ACE2 expression on the cell surface
cell surface LSD1 expression (ACE2, LSD1; 25 mM/50 mM): reducing cell surface LSD1 expression
lung infectious titers (TCID50 assay) (SARS-CoV-2 [2]): reduced
expression of Spike protein of SARS-CoV-2 [3]: significantly inhibit and downregulate
expression of host ACE2 [3]: significantly inhibit and downregulate
expression of nucleocapsid protein of SARS-CoV-2 [3]: significantly inhibit and downregulate
inhibition of the ACE2-importin complex in vitro (ACE2-importin complex): directly inhibiting the ACE2-importin complex
changes in the bronchioles or vessels (H&E) [4]: minimal changes
mean cumulative histopathological scores [4]: substantially lower than the vehicle group
viral RNA in the lungs (SARS-CoV-2 [5]): Significant reductions
decrease in viral load normalized to the vehicle group (SARS-CoV-2 [5]; ip, 100 mg/kg): 96%
decrease in viral load normalized to the vehicle group (SARS-CoV-2 [5]; iv, 15 mg/kg): 88%
toxicity in animal safety studies [6]: minimal toxicity
ACE2unmod-IMP1 interaction (DUOLINK) (ACE2unmod and IMPα1): significantly all but abrogated
overall intensity of Spike protein signal in positive cells (SARS-CoV-2 Spike protein [7]): significantly reduced
population of cells in bronchial lung sections positive for SARS-CoV-2 spike protein (SARS-CoV-2 Spike protein [7]): significantly reduced

QAKTFLD{Lys(Me2)}FNHEAED (QAKTFLD[Lys(Me2)]FNHEAED) [ACE2me2]
de-methylation at lysine 31 by LSD1 (LSD1 [8]): efficiently de-methylated

STIEEQAKTFLDK [ACE2-02]
reduction in viral load (infectious viral titers, TCID50) (SARS-CoV-2 [9]): 3.2 fold
inhibition of Spike protein binding to the cell surface (SARS-CoV-2 spike protein [10]): significantly inhibit
interaction between ACE2 and spike protein (ACE2/spike complexes at the cell surface) [11]: further disrupted
decrease of viral RNA in infected cells (SARS-CoV-2 [12]): 2 fold
reduction of infection (qRT-PCR) in cell culture supernatants (SARS-CoV-2 [12]): 4.6 fold

Source: US20240352072A1, “NOVEL COMPOSITIONS AND METHODS FOR TREATING CORONAVIRUS INFECTIONS” (priority 2021, published 2024)
